The test system of data set [1] is NCI-H1299. Put plainly: Induction of apoptosis in p53 deficient human H1299 cells at IC50 assessed as histone release by ELISA relative to control. The format is functional. (In general: In an ELISA, binding on a coated surface is turned into a signal by an enzyme label.)
The nature of data set [2]: Cytotoxicity against p53 deficient human H1299 cells after 24 hrs by MTT assay. The format is functional, cell-based. The settings on record: NCI-H1299, 24 h.
Data set [3] in a line: Cytotoxicity against human NL20 cells at IC50 after 24 hrs by MTT assay. It counts as cell-based. The settings on record: nl20, 24 h. A general note: Tetrazolium dyes change colour on reduction, which living cells bring about.
The nature of data set [4]: Induction of apoptosis in human NL20 cells at IC50 assessed as histone release by ELISA relative to control. It counts as cell-based.
The nature of data set [5]: Cytotoxicity against p53 deficient human H1299 cells at 100 uM after 24 hrs by MTT assay. The format is functional. The settings on record: NCI-H1299, 24 h, read-out: GI.
Data set [6] concerns NCI-H1299. Briefly: Induction of apoptosis in human […] cells expressing wild type p53 at IC50 assessed as histone release by ELISA relative to control. It counts as functional.
In a further data set the test system is A549. Put plainly: Cytotoxicity against human A549 cells. The format is functional, cell-based.

For the molecule `COCO[C@@H]1C[C@]23CC[C@@H]4[C@](C)(COC(=O)NCc5ccc(OC)cc5)CCC[C@@]4(C)[C@@H]2CC[C@@]1(C)C3`, the “fold change (FC)” value in the data set with NCI-H1299 [1] came to 7; in data set [4], 4; with NCI-H1299 [6], 2. The same molecule yielded an IC50 in data set [2] of 21 µM. In addition, the Activity in data set [3] was 20%. In addition, in data set [5], the inhibition of growth at 100 µM amounted to 89%.

Molecule `C[C@@]12CC[C@@H]3[C@@](CC[C@@H]4[C@](C)(COC(=O)/C=C/C(F)(F)F)CCC[C@]43C)(C[C@H]1O)C2` had an IC50 in the data set with A549 of 4.1 µM.

With `COCO[C@@H]1C[C@]23CC[C@@H]4[C@](C)(CO)CCC[C@@]4(C)[C@@H]2CC[C@@]1(C)C3`, the inhibition of growth at 100 µM in data set [5] is 15%.

`COCO[C@@H]1C[C@]23CC[C@@H]4[C@](C)(COC(=O)c5ccccc5)CCC[C@@]4(C)[C@@H]2CC[C@@]1(C)C3`: in data set [5], the inhibition of growth at 100 µM came out at 8%.

As to `COCO[C@@H]1C[C@]23CC[C@@H]4[C@](C)(COC(C)=O)CCC[C@@]4(C)[C@@H]2CC[C@@]1(C)C3`, in data set [5], the inhibition of growth at 100 µM came to 13%.

Turning to `CCCCCCCC(=O)OC[C@]1(C)CCC[C@]2(C)[C@@H]1CC[C@@]13C[C@@H](OCOC)[C@@](C)(CC[C@H]12)C3`, the figures for the “fold change (FC)” value (with NCI-H1299 [1]; in data set [4]; in the data set on NCI-H1299 [6]) were 10, 4 and 2, respectively. Further, in data set [2], the IC50 was 14 µM. The molecule also returned an Activity in data set [3] of 20%. For the same molecule, the inhibition of growth at 100 µM in data set [5] came out at 95%.

Regarding `COCO[C@@H]1C[C@]23CC[C@@H]4[C@](C)(COC(=O)C(C)C)CCC[C@@]4(C)[C@@H]2CC[C@@]1(C)C3`, the inhibition of growth at 100 µM in data set [5] is 20%.

`COCO[C@@H]1C[C@]23CC[C@@H]4[C@](C)(COC(=O)COc5ccccc5)CCC[C@@]4(C)[C@@H]2CC[C@@]1(C)C3`: in data set [5], the inhibition of growth at 100 µM is 70%.

Turning to `COCO[C@@H]1C[C@]23CC[C@@H]4[C@](C)(COC(=O)Nc5ccccc5)CCC[C@@]4(C)[C@@H]2CC[C@@]1(C)C3`, the inhibition of growth at 100 µM in data set [5] amounted to 65%.

Take `COCO[C@@H]1C[C@]23CC[C@@H]4[C@](C)(COC(=O)Nc5ccc(C(C)=O)cc5)CCC[C@@]4(C)[C@@H]2CC[C@@]1(C)C3`: in data set [5], the inhibition of growth at 100 µM is 60%.

For `CCCNC(=O)OC[C@]1(C)CCC[C@]2(C)[C@@H]1CC[C@@]13C[C@@H](OCOC)[C@@](C)(CC[C@H]12)C3`, the inhibition of growth at 100 µM in data set [5] amounted to 20%.

For the molecule `COCO[C@@H]1C[C@]23CC[C@@H]4[C@](C)(COC(=O)NCc5ccccc5)CCC[C@@]4(C)[C@@H]2CC[C@@]1(C)C3`, the inhibition of growth at 100 µM in data set [5] stood at 50%.

For the molecule `CCCCCCCC(=O)OC[C@]1(C)CCC[C@]2(C)[C@@H]1CC[C@@]13C[C@@H](O)[C@@](C)(CC[C@H]12)C3`, the inhibition of growth at 100 µM in data set [5] was 48%.

The IC50 is the midpoint of a concentration-inhibition curve.
